Measurements taken from patent US7960551B2, “Compound” (Glaxo Group Limited, priority 2007, dated 2011).
Structures can show the parent of a compound that is named as a salt.

Assay: Dynamic Vapour Sorption (DVS) assessment
Format: physicochemical
Experimental: A Dynamic Vapour Sorption (DVS) profile of Form 1 was obtained using an SMS DVS-1 with water as a reagent at 25° C. 20-30 mg of sample were placed in a glass bulb and equilibrated at 30% RH. The % RH was increased to 90% in 10% steps.

deliquescence (exposed to atmospheric moisture / DVS profile): not to be deliquescent
weight gain (hygroscopicity) (humidity range of 30% relative humidity to 90% relative humidity, water, 25° C.): less than 2.0%
sorption/desorption profile (two sorption/desorption cycles, 0-90% RH in 10% steps, 25° C.): reversible
Structure (SMILES): COc1cc(NC(=O)CCN2CCC(OC(=O)Nc3ccccc3-c3ccccc3)CC2)c(Cl)cc1CNC[C@H](O)c1ccc(O)c2[nH]c(=O)ccc12 [Form 1, Biphenyl-2-ylcarbamic Acid 1-[2-(2-Chloro-4-{[(R)-2-hydroxy-2-(8-hydroxy-2-oxo-1,2-dihydroquinolin-5-yl)ethylamino]methyl}-5-methoxyphenylcarbamoyl)-ethyl]piperidin-4-yl Ester Succinic Acid Salt (Form 1)]
